Assay results from US20200061062A1, “INHIBITORS OF HUMAN PHOSPHATIDYLINOSITOL 3-KINASE DELTA” (ICOS Corporation, priority 2000, published 2020).

Legend:
PI3Kγ = target: T1, PI3Kγ (Homo sapiens, UniProt P48736); experiment: Biochemical assay using 200 μM ATP, Gamma
T1 construct: His tag (pFastbac HTb vector) (N); FLAG (N); made in house; host or cells: Sf21 insect cells (baculovirus)
Experimental: (§3) PI3Kδ catalyzes a phosphotransfer from γ-[^32P]ATP to PIP2/PS liposomes at the D3′ position of the PIP2 lipid inositol ring. This reaction is MgCl2 dependent and is quenched in high molarity potassium phosphate buffer pH 8.0 containing 30 mM EDTA. […] The reaction products (and all unlabelled products) are transferred to a 96-well, prewetted PVDF filter plate, filtered, and washed in high molarity potassium phosphate. Scintillant is added to the dried wells and the incorporated radioactivity is quantitated.
(§4) This dilution established a final concentration of 200 μM ATP in the reaction volume. The reaction was stopped with 150 μL quench buffer (1.0 M potassium phosphate pH 8.0, 30 mM EDTA). A portion of the quenched solution (180 μL) was then transferred to a PVDF filter plate (Millipore # MAIP NOB prewetted with sequential 200 μL washes of 100% methanol, water, and finally 1.0 M potassium phosphate pH 8.0 wash buffer).
(§5) The PVDF filter plate was aspirated under moderate vacuum (2-5 mm Hg), washed with 5×200 μL of wash buffer, and then dried by aspiration. The filter was subsequently blotted, allowed to air dry completely, and inserted into a Wallac counting cassette with 50 μL of Ecoscint scintillation cocktail added per well.
(§6) Subsequent selectivity assays were done similarly using the same 3× substrate stocks except they contained 0.05 mCi/mL γ[^32P]ATP and 3 mM PIP2. Subsequent selectivity assays also used the same 3× enzyme stocks, except they now contained 3 nM of any given PI3K isoform.
(§7) For all selectivity assays, the test compounds were weighed out and dissolved into 10-50 mM stocks in 100% DMSO (depending on their respective solubilities) and stored at −20° C. […] From these dilutions, 20 μL was added into the assay wells alongside water blanks used for the enzyme (positive) control and the no enzyme (background) control.
(§8) This selectivity protocol is identical to that described above, except the 3× stock ATP concentration was 600 μM.

human neutrophils = experiment: Elastase exocytosis from neutrophils (fMLP-induced); type: cell-based; details: neutrophil (PMN) elastase release
Experimental: Aliquots (8 mL) of heparinized blood from healthy volunteers were layered on 3 mL cushions of 7.3% FICOLL® (Sigma, St. Louis, Mo.) and 15.4% HYPAQUE® (Sigma) and centrifuged at 900 rpm for 30 min at room temperature in a table top centrifuge (Beckman). The neutrophil-rich band just above the FICOLL®-HYPAQUE® cushion was collected and washed with Hanks' balanced salt solution (HBSS) containing 0.1% gelatin. Residual erythrocytes were removed by hypotonic lysis with 0.2% NaCl. The neutrophil preparation was washed twice with HBSS containing 0.1% gelatin and used immediately.
In addition to superoxide generation, activated neutrophils also respond by releasing several proteases that are responsible for the destruction of tissues and cartilage during inflammation. As an indication of protease release, the effect of D-000 on elastase exocytosis was measured. Elastase exocytosis was quantitated by modification of the procedure described by Ossanna et al. (J Clin Invest, 77:1939-1951 (1986)), as follows. Purified human neutrophils (0.2×10^6) (treated with either DMSO or a serial dilution of D-000 in DMSO) were stimulated with fMLP in PBS containing 0.01 mg/mL cytochalasin B, 1.0 μM sodium azide (NaN3), 5 μg/mL L-methionine and 1 μM fMLP for 90 min at 37° C. in a 96-well plate. At the end of the incubation period, the plate was centrifuged for 5 min at 1000 rpm, and 90 μL of the supernatant was transferred to 10 μL of 10 mM solution of an elastase substrate peptide, MeO-suc-Ala-Ala-Pro-Val-pNA, wherein MeO-suc=methoxy-succinyl; pNA=p-nitroanilide (Calbiochem, San Diego, Calif.). Absorbance at 410 nm was monitored for 2 hr in a 96-well plate reader. To measure the relative amounts of elastase excytosed, all absorbance values were normalized to the values without any inhibitor. […] Inhibition was half-maximal at a concentration of about 2-3 μM D-000.
(§1) Using the methods described in Examples 3-5, above, compounds of the invention were tested for inhibitory activity and potency in assays of stimulated B and T cell proliferation, neutrophil (PMN) migration, and neutrophil (PMN) elastase release. In Table 4, the values shown are effective concentrations of the compound (EC50; μM). Where no value is given, no assay was performed.

PI3Kα [1] = target: T2, PI3Kα (Homo sapiens, UniProt P42336); experiment: Biochemical assay using 200 μM ATP, Alpha
T2 construct: His tag (pFastbac HTb vector) (N); FLAG; made in house; host or cells: Sf21 insect cells (baculovirus)
T2 sequence (P42336 whole entry): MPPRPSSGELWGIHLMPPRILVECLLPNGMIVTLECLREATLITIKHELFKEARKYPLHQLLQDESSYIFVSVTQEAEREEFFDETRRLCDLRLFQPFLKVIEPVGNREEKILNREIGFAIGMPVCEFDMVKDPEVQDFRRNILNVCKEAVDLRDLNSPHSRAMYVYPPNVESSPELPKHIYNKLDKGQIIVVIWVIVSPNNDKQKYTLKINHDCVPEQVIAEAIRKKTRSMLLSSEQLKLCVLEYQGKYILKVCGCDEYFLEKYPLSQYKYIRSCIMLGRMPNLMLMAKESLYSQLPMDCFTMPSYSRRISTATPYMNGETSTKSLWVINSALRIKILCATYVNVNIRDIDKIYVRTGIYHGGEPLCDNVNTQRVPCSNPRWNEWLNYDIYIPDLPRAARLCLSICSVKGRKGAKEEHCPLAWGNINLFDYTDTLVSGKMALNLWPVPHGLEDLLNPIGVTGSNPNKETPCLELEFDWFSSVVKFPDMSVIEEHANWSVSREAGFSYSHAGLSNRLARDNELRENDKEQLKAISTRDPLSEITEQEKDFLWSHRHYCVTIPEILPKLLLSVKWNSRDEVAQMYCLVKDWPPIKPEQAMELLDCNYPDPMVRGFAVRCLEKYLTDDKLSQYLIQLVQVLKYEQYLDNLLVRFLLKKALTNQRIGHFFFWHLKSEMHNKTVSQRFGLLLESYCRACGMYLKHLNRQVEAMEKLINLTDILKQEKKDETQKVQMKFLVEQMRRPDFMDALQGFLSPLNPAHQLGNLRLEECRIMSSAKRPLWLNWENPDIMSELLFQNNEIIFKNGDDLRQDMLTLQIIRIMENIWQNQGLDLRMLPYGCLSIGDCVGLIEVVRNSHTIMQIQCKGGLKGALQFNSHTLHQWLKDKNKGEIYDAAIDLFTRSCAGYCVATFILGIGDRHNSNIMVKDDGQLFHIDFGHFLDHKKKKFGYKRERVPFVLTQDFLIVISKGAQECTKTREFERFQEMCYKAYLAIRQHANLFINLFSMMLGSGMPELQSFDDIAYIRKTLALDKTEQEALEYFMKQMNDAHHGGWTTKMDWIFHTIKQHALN
T2 sequence (P27986 whole entry partner): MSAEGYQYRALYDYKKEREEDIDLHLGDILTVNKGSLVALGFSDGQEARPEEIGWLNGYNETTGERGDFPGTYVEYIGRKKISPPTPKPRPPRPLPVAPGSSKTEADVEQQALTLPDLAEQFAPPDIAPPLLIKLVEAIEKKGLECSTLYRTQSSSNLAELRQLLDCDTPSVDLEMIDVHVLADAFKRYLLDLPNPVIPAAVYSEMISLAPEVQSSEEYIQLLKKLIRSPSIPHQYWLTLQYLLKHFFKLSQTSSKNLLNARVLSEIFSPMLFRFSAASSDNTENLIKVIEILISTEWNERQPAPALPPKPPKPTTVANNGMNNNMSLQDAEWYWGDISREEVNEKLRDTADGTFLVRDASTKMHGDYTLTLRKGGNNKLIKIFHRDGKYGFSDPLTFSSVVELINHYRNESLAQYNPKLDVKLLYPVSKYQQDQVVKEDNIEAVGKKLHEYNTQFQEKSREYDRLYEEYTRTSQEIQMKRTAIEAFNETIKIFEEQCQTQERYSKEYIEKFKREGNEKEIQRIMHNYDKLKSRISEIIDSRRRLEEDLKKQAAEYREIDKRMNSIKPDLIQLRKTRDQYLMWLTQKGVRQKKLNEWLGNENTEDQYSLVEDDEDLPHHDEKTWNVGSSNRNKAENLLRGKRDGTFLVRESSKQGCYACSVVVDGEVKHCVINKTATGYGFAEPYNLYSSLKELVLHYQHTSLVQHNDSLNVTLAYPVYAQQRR
Experimental: as §3, §4, §5, §6, §7, §8

PI3Kδ [2] = target: T3, PI3Kδ (Homo sapiens, UniProt O00329, S253N); experiment: Biochemical assay using 200 μM ATP, Delta;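 also: radiometric filter-binding assay: PI3Kδ transfers ³²P from γ-[³²P]ATP onto PIP2/PS liposomes, counted by scintillation, enzyme-only wells as positive control, no-enzyme wells as background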
T3 sequence (O00329 whole entry S253N): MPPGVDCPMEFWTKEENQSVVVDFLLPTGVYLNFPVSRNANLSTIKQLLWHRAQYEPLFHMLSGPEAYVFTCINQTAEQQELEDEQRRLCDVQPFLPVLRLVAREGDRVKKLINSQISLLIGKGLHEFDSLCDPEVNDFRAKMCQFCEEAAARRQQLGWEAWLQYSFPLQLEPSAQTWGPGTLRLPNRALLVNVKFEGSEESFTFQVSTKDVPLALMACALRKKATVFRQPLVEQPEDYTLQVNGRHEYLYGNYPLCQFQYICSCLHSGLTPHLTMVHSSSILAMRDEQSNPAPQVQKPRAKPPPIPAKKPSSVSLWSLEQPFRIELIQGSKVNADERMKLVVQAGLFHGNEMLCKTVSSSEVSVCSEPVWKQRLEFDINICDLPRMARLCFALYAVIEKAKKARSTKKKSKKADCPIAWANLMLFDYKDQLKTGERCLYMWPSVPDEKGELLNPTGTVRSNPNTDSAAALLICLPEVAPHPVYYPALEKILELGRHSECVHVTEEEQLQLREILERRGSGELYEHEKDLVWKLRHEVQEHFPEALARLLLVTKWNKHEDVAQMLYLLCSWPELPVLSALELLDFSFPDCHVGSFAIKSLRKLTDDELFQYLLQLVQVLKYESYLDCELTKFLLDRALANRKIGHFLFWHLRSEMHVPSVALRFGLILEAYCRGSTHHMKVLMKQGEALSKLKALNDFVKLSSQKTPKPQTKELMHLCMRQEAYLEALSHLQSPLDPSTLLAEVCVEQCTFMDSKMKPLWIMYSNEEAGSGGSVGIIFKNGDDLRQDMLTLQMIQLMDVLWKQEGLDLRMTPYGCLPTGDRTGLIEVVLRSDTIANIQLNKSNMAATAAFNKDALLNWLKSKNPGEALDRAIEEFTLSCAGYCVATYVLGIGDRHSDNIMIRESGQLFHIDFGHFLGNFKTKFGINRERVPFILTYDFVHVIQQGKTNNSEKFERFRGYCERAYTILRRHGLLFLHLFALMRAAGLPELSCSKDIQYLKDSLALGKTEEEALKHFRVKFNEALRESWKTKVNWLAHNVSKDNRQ
T3 sequence (P27986 whole entry partner): as the sequence (P27986 whole entry partner) above

PI3Kα [3] = target: T2, PI3Kα; experiment: Biochemical assay of PI3K potency and selectivity using 20 μM ATP, Alpha; details: for Alpha/Delta Ratio / IC50: 20 μM ATP; for Alpha/Delta Ratio: ratio of IC50 values, > = hypothetical ratio with 100 μM substituted for the missing IC50; for IC50: read-out: Alpha IC50; for remaining activity at 100 µM: read-out: percent activity remaining at 100 μM, 20 μM ATP, 100 μM compound did not inhibit by at least 50%
Source text: (§2) Recombinant PI3K heterodimeric complexes consisting of a p110 catalytic subunit and a p85 regulatory subunit were overexpressed using the BAC-TO-BAC® HT baculovirus expression system (GIBCO/BRL), and then purified for use in biochemical assays. The four Class I PI 3-kinases were cloned into baculovirus vectors as follows: […]

PI3Kβ [4] = target: T4, PI3Kβ (Homo sapiens, UniProt P42338); experiment: Biochemical assay using 200 μM ATP, Beta
T4 construct: His tag (pFastbac HTa vector) (N); FLAG (N); made in house; host or cells: Sf21 insect cells (baculovirus)
T4 sequence (P42338 whole entry): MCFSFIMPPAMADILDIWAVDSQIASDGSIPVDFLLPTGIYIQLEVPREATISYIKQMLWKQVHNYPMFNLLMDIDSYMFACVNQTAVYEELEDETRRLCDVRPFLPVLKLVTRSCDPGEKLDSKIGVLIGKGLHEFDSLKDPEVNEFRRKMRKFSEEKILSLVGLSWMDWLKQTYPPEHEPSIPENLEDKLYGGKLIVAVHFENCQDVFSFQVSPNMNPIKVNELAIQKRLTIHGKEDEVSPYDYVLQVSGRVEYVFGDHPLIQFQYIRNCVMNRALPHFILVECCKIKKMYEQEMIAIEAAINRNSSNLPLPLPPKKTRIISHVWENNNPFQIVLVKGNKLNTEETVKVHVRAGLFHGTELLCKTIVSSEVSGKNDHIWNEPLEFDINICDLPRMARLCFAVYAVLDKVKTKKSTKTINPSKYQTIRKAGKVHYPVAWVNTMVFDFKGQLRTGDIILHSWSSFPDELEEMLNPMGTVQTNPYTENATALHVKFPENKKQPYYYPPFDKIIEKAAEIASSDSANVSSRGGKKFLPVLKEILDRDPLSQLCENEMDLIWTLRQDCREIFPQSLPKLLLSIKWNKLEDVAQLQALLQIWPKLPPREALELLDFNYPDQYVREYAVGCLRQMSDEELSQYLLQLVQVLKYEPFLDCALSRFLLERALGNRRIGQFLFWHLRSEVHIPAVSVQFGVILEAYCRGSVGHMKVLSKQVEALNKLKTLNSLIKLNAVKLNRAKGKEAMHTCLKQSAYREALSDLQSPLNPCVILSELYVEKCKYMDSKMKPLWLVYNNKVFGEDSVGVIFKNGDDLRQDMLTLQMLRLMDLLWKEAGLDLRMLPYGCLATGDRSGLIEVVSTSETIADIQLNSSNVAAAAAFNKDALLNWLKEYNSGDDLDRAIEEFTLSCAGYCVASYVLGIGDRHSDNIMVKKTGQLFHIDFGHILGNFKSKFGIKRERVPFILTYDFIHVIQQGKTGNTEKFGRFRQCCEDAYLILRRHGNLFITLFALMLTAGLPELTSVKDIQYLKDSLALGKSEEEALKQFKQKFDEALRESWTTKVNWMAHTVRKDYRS
T4 sequence (P27986 whole entry partner): as the sequence (P27986 whole entry partner) above
Experimental: as §3, §4, §5, §6, §7, §8

PI3Kβ [5] = target: T4, PI3Kβ; experiment: Biochemical assay of PI3K potency and selectivity using 20 μM ATP, Beta; details: 20 μM ATP; for Beta/Delta Ratio: ratio of IC50 values, > = hypothetical ratio with 100 μM substituted for the missing IC50; for IC50: read-out: Beta IC50; for remaining activity at 100 µM: read-out: Beta: percent activity remaining at 100 μM, 100 μM compound did not inhibit by at least 50%
Experimental: Recombinant PI3K heterodimeric complexes consisting of a p110 catalytic subunit and a p85 regulatory subunit were overexpressed using the BAC-TO-BAC® HT baculovirus expression system (GIBCO/BRL), and then purified for use in biochemical assays. The four Class I PI 3-kinases were cloned into baculovirus vectors as follows:
The 3× substrate for the HTS contained 0.6 mM Na2ATP, 0.10 mCi/mL γ-[^32P]ATP (NEN, Pittsburgh, Pa.), 6 μM PIP2/PS liposomes (Avanti Polar Lipids, Inc., […].), in 20 mM HEPES, pH 7.4.

[6] = test system: Murine splenocytes (Balb/c); experiment: B cell proliferation in response to cell surface IgM stimulation; type: cell-based; details: Mus musculus, Splenocyte; stimulated B cell proliferation; read-out: Mouse BCR Stim (EC50)
Experimental: In the above experiment, the B cells were stimulated using PANSORBIN®. The effect of D-000 on B cell proliferation response when they were stimulated through their cell surface IgM using anti-IgM antibody also was measured. Murine splenocytes (Balb/c) were plated into 96-well microtiter plates at 2×10^5 cells per well in 10% FBS/RPMI. Appropriate dilutions of test inhibitor in complete medium were added to the cells and the plates were incubated for 30-60 minutes prior to the addition of stimulus. Following the preincubation with test inhibitor an F(ab′)2 preparation of goat antibody specific for the μ-chain of mouse IgM was added to the wells at a final concentration of 25 μg/mL. The plates were incubated at 37° C. for 3 days and 1 μCi of [^3H]-thymidine was added to each well for the final four hours of culture. The plates were harvested onto fiber filters washed and the incorporation of radiolabel was determined using a beta counter (Matrix 96, Packard Instrument Co., Downers Grove, Ill.) and expressed as counts per minute (CPM).
as §1

PI3Kδ [7] = target: T3, PI3Kδ; experiment: Biochemical assay of PI3K potency and selectivity using 20 μM ATP, Delta; design: His tag (pFastbac HTb vector) (N); FLAG; made in house; host or cells: Sf21 insect cells (baculovirus); details: 20 μM ATP; read-out: Delta IC50
Source text: as §2

T1 sequence (P48736 whole entry): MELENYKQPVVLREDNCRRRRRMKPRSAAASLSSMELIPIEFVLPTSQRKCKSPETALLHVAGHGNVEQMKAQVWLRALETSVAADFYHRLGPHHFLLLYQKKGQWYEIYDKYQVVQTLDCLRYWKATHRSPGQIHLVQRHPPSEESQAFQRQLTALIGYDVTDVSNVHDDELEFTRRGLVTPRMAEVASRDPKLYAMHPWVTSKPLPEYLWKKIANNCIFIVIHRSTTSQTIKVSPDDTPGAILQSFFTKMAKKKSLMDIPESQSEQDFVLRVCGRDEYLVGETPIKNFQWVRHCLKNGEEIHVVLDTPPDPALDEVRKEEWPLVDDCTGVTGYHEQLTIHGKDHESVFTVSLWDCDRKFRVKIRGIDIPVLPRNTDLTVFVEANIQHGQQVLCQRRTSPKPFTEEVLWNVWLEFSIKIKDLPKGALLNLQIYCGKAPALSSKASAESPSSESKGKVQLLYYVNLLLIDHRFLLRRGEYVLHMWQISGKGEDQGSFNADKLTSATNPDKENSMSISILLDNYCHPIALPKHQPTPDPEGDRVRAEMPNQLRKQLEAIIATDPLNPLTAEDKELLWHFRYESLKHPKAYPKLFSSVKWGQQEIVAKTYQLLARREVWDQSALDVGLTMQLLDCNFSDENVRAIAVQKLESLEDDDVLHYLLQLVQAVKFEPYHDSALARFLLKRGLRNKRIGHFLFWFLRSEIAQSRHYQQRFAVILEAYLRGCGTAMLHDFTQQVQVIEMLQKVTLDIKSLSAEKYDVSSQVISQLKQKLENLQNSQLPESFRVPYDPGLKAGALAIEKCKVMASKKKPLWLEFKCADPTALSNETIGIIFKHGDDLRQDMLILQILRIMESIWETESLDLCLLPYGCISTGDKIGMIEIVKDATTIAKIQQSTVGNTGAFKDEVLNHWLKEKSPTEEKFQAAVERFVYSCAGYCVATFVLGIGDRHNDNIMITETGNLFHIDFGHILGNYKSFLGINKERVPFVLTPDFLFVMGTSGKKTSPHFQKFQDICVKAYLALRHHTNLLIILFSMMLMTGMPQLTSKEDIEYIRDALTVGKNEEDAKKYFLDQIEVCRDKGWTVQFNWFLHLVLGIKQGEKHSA

| IC50 (PI3Kγ) [nM] | IC50 (PI3Kβ [4]) [nM] | Compound | Gamma/Delta Ratio (PI3Kγ) | EC50 (human neutrophils) [nM] | Alpha/Delta Ratio (PI3Kα [1]) | IC50 (PI3Kδ [2]) [nM] | Alpha/Delta Ratio (PI3Kα [3]) | IC50 (PI3Kα [3]) [nM] | melting point | Beta/Delta Ratio (PI3Kβ [4]) | Beta/Delta Ratio (PI3Kβ [5]) | IC50 (PI3Kβ [5]) [nM] | EC50 [6] [nM] | IC50 (PI3Kδ [7]) [nM] | remaining activity at 100 µM (PI3Kα [3]) [%] | remaining activity at 100 µM (PI3Kβ [5]) [%] |
| --- | --- | --- | --- | --- | --- | --- | --- | --- | --- | --- | --- | --- | --- | --- | --- | --- |
| 53000 | 18000 | Nc1ncnc2c1ncn2Cc1nc2cccc(Cl)c2c(=O)n1-c1ccccc1-c1ccccc1 [Compound D-009, 2-(6-Aminopurin-9-ylmethyl)-3-biphenyl-2-yl-5-chloro-3H-quinazolin-4-one] | 76 | 10500 | 200 | 700 | 683 | 82000 | 299.9 to 300.1 °C | 26 | 50 | 5000 | 300 ± 200 | 120 |  |  |
|  |  | O=c1c2cc(O)ccc2nc(CSc2ncnc3[nH]cnc23)n1-c1ccccc1Cl [Compound D-024, 3-(2-Chlorophenyl)-6-hydroxy-2-(9H-purin-6-ylsulfanylmethyl)-3H-quinazolin-4-one] |  | 2900 |  |  | 38 | 100000 | 186 to 214 °C (dec.) |  | >38 |  |  | 2600 |  | 76 |
| 60000 | 110000 | O=c1c2cc(F)c(F)cc2nc(CSc2ncnc3[nH]cnc23)n1-c1ccccc1Cl [Compound D-027, 3-(2-Chlorophenyl)-6,7-difluoro-2-(9H-purin-6-ylsulfanylmethyl)-3H-quinazolin-4-one] | 15 | 2000 | 37 | 4000 | >169 |  | 207.8 °C | 26 | 97 | 58000 | > 2000 | 600 | 59 |  |
| 34000 ± 1000 | 103000 ± 4000 | Cc1cccc2nc(CSc3ncnc4[nH]cnc34)n(-c3c(Cl)cccc3Cl)c(=O)c12 [Compound D-034, 3-(2,6-dichlorophenyl)-5-methyl-2-(9H-purin-6-ylsulfanylmethyl)-3H-quinazolin-4-one] | 28 |  | 153 | 1200 ± 300 | 131 | 19000 |  | 85 | 74 | 11000 | 600 ± 400 | 150 |  |  |
|  |  | CCOC(=O)Cn1c(CSc2ncnc3[nH]cnc23)nc2cccc(F)c2c1=O [Compound D-045, [5-fluoro-4-oxo-2-(9H-purin-6-ylsulfanylmethyl)-4H-quinazolin-3-yl]acetic acid ethyl ester] |  | 9000 |  |  | >13 |  |  |  | >13 |  |  | 7600 | 98 | 74 |
|  |  | O=c1c2ccccc2nc(CSc2ncnc3[nH]cnc23)n1-c1ccccc1 [Compound D-121, 3-phenyl-2-(9H-purin-6-ylsulfanylmethyl)-3H-quinazolin-4-one] | 136 |  | 158 | 900 | >211 |  |  | 138 | >211 |  | 1400 | 480 | 69 | 70 |

| Compound | IC50 (PI3Kγ) [nM] | IC50 (PI3Kβ [4]) [nM] | Gamma/Delta Ratio (PI3Kγ) | EC50 (human neutrophils) [nM] | Alpha/Delta Ratio (PI3Kα [1]) | IC50 (PI3Kδ [2]) [nM] | Alpha/Delta Ratio (PI3Kα [3]) | IC50 (PI3Kα [3]) [nM] | melting point | Beta/Delta Ratio (PI3Kβ [4]) | Beta/Delta Ratio (PI3Kβ [5]) | IC50 (PI3Kβ [5]) [nM] | EC50 [6] [nM] | IC50 (PI3Kδ [7]) [nM] | remaining activity at 100 µM (PI3Kα [3]) [%] | remaining activity at 100 µM (PI3Kβ [5]) [%] |
| --- | --- | --- | --- | --- | --- | --- | --- | --- | --- | --- | --- | --- | --- | --- | --- | --- |
| Nc1ncnc2c1ncn2Cc1nc2cccc(Cl)c2c(=O)n1-c1ccccc1F [Compound D-012, 2-(6-Aminopurin-9-ylmethyl)-5-chloro-3-(2-fluorophenyl)-3H-quinazolin-4-one] |  | 108000 ± 4000 | 38 | 300 | 107 | 1300 ± 400 | >588 |  | 295.6 to 295.8 °C (dec.) | 83 | 65 | 11000 | 300 ± 200 | 170 | 69 |  |
| O=c1c2cc(F)ccc2nc(CSc2ncnc3[nH]cnc23)n1-c1ccccc1Cl [Compound D-028, 3-(2-Chlorophenyl)-6-fluoro-2-(9H-purin-6-ylsulfanylmethyl)-3H-quinazolin-4-one] | 29000 |  | 18 | 1000 | 125 | 1600 | >556 |  | 232.8 to 233 °C | 101 | 69 | 13000 | 400 ± 200 | 180 | 67 |  |
| Cc1cccc2nc(CSc3ncnc4[nH]cnc34)n(-c3ccccc3F)c(=O)c12 [Compound D-031, 3-(2-Fluorophenyl)-5-methyl-2-(9H-purin-6-ylsulfanylmethyl)-3H-quinazolin-4-one] | 155000 ± 60000 | 137000 ± 23000 | 802 | 700 ± 100 | 903 | 200 ± 10 | >833 | 74000 | 151.9 to 152.2 °C | 707 | 83 | 10000 | 200 ± 100 | 120 |  |  |
